Experimental data published in US20070105215A1, “METHOD OF CULTURING STEM CELLS USING ABC TRANSPORTERS” (SAMSUNG ELECTRONICS CO., LTD., priority 2005, published 2007).
Read-outs that look alike come from different tables or passages of the source.

Key:
[1] = Coculture of A549 and K562 cells treated with Mitoxantrone, viability of A549 cells; format: cell-based; settings: human, A549 cells cocultured with K562 cells, A549 co-cultured with K562, Mitoxantrone 0.4 M
[2] = tested on: A549 (human lug carcinoma cell ATCC no.CCL-185), having ABC transporters of the ABCG2 family
[3] = Cell activity/viability of K562 cells treated with Mitoxantrone (Sulforhodamine B kit), single culture; format: cell-based; settings: human, K562 cells (no ABC transporter); K562 single culture, Mitoxantrone 0.4 M, incubated for 96 hours
Method: (§1) This was performed in the same manner as in Example 1, except that K562 (chronic myelogenous leukemia) cells having no ABC transporter were incubated in place of the A549 cells.
(§2) This was performed in the same manner as in Example 1, except that K562 cells having no ABC transporter were used in place of the A549 cells.

[4] = tested on: K562 (chronic myelogenous leukemia) cells having no ABC transporter; experiment: as above; format: cell-based
Method: as §1, §2

[5] = Coculture of A549 and K562 cells treated with Mitoxantrone, viability of K562 cells; format: cell-based; settings: human, K562 cells cocultured with A549 cells, K562 coculture with A549, Mitoxantrone 0.4 M

**Q.** Which viability at 96 h, 0.4 M [1] does the source give for `O=C1c2c(O)ccc(O)c2C(=O)c2c(NCCNCCO)ccc(NCCNCCO)c21` [Mitoxantrone] here?
**A.** 92%

**Q.** And the cell activity ([2]; A549, Mitoxantrone concentration of 0.4M (FIG. 6))?
**A.** 98%

**Q.** What about the cell activity ([2]; A549, Mitoxantrone concentration of 1.0M (FIG. 6)) of the same compound?
**A.** 86%

**Q.** What about the cell activity ([2]; A549, Mitoxantrone concentration of 2.6 (FIG. 6)) of the same compound?
**A.** 68%

**Q.** What about the viability at 96 h, 0.4 M [3] of the same compound?
**A.** 28%

**Q.** And the cell activity ([4]; K562, Mitoxantrone concentration of 0.1M (FIG. 6))?
**A.** about 60%

**Q.** And the cell activity ([4]; K562, Mitoxantrone concentration of 0.2M (FIG. 6))?
**A.** almost zero

**Q.** And the viability at 96 h, 0.4 M [5]?
**A.** 17%
